Values joined by “and” are separate entries in the source; they are usually repeats but may differ in a detail not shown here. Equal values may be shown once. Read-outs that look alike come from different tables or passages of the source.
Experiments:
pertussis toxin [1] = molecular target: T1, pertussis toxin (Bordetella pertussis, UniProt P04977); assay: Effect of detergents on the NADase activity of pertussis toxin (Example Four); assay type: biochemical; conditions: 1 mM ATP, 10 mM DTT; for Fractional Activity with CHAPS: detergent 1 weight percent plus CHAPS 1%; for Fractional Activity with CHAPS / Fractional Activity without CHAPS: relative to 1% CHAPS alone; for Fractional Activity without CHAPS: detergent 1 weight percent
T1 sequence (P04977 35-269 limits assumed): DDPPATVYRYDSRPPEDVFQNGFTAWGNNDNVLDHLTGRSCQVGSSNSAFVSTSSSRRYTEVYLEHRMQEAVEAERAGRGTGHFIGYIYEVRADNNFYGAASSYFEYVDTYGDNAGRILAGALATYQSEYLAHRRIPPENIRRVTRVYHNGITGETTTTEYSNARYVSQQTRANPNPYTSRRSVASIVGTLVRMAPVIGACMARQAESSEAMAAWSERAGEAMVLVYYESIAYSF
Procedure: (§1) The pertussis toxin in the Examples comprised 50 μg of the toxin in a 500 μl solution of 10 mM sodium phosphate-50 mM sodium chloride-water solution having a pH of 7. The enzymatic activity was detected as the hydrolysis of nicotinamide labelled NAD and ion-exchange column chromatography to resolve the product from the substrate. Unless otherwise noted, the assay was initiated by adding 0.5 to 2.5 μg of the toxin to a reaction mixture for a final volume of 100 μl. The NADase reaction was terminated by adding 0.85 ml of ice-cold water. The entire 0.95 ml was then pipetted into a QAE-Sephadex column (chloride form) and the labelled nicotinamide eluted with 3 ml of water directly into a scintillation vial and counted. […] One unit of NADase activity is defined as 1 pmol NAD hydrolyzed per hour.
The effect of detergents on the NADase activity of pertussis toxin was measured in the presence of various detergents at a concentration of 1 weight percent in either the absence or presence of the detergent CHAPS (1 percent by weight). ATP was present in all assays in a concentration of 1 mM, and DTT concentration was 10 mM. Fractional activity is shown in Table III and is defined as activity divided by activity in the presence of 1% CHAPS. The value given is the average for two separate trials, and in each trial duplicates were measured for each condition.

pertussis toxin [2] = molecular target: T1, pertussis toxin; assay: Inactivation of NADase activity by iodoacetate after different activator combinations (Example Seven); assay type: biochemical; conditions: additions to first incubation only (DTT 1 mM, ATP 1 mM, CHAPS 1%), second incubation none
Procedure: (§2) Pertussis toxin was incubated first at 37° C. for fifteen minutes in […] buffer A (100 mM Tris-HCl, pH 8.0 with 1 mM NaEDTA). EDTA was added to chelate divalent cations, which may promote oxidation of free --SH groups. During this incubation, DTT and ATP were present in concentrations of 1 mM each, and CHAPS was present in a concentration of 1 weight percent. Labelled iodoacetate was then added ([…], 12.5 mM), and the tube incubated on ice for twenty hours. The sample was then mixed with sodium dodecylsulfate and β-mercaptoethanol, heated at 95° C. for one minute, and electrophoresed. After electrophoresis, the gel was fixed, treated with Fluorohance (Research Products International), dried and used to expose x-ray film.
(§3) Pertussis toxin was incubated at 37° C. for fifteen minutes as described in Example Six, and then a second incubation was begun by adding 10 μl buffer A with or without 12.5 mM iodoacetate, mixing the contents of the tube and lowering the temperature to 30° C. After fifteen minutes, the tubes were shifted to an ice bath for ten minutes. A third incubation was then begun by adding 10 μl buffer A containing 200 mM DTT to those tubes containing iodoacetate to scavenge the iodoacetate. To those tubes not containing iodoacetate during the second incubation, a mixture of 200 mM DTT and 12.5 mM iodoacetate in buffer A, previously incubated for an hour on ice, was added. The third incubation was continued for one hour on ice.
(§4) The contents of each tube were then assayed for NADase activity by adding 40 μl of a reaction mix consisting of buffer A containing carbon-14 labelled NAD (final concentration in the 100 μl final volume was 25 μM), and 50 mM sodium chloride. Different reaction mixtures with various additions were used, so that in all tubes the final concentration of ATP was 1 mM and CHAPS was 1 weight percent. The assay was conducted at 37° C. for sixty minutes, and the released labelled nicotinimide was isolated and counted. The iced controls were formed by incubating pertussis toxin (1 μg) on ice in 10 mM sodium phosphate (pH 7) and 50 mM sodium chloride during the first three incubations. […] The first three incubations were done under a nitrogen atmosphere using degassed conditions, and the second and third incubations were done under subdued light.

pertussis toxin [3] = molecular target: T1, pertussis toxin; assay: NADase activity in the presence of sulfhydryl reducing agents (Example Five); assay type: biochemical
Procedure: In the description herein, activation constants for the substances may be expressed by a numerical value (A0.5) by using an NADase assay.
as §1
Pertussis toxin NADase activity was assayed in the presence of various sulfhydryl reducing agents at various concentrations. The assay buffer contained 1% CHAPS and 1 mM ATP.

pertussis toxin [4] = molecular target: T1, pertussis toxin; assay: as above; assay type: biochemical; conditions: 10 mM DTT without ATP
pertussis toxin [5] = molecular target: T1, pertussis toxin; assay: NADase activity of pertussis toxin after activation and treatment with alkylating reagent (Example One); assay type: biochemical
Excerpt: The ADP-ribosylating activity of the pertussis toxin can be detected as a nicotinamide-adenine dinucleotide-glycohydrolase (NADase) activity, which can be conveniently assayed through the use of [nicotinamide-^14 C] or [nicotinamide-^3 H] NAD. NAD consists of ADP-ribose linked to nicotinimide, and thus the extent of the release of ADP-ribose from NAD is an indication of the ability of the toxin to cause ill effects. In conducting this assay of the hydrolysis of labelled NAD, ion-exchange column chromatography was employed to resolve the product from the substrate according to the method described by Moss et al., J. Biol. Chem. 258, 11879 (1983) which is incorporated herein by reference. However, several modifications to this method were employed. First, a QAE-Sephadex resin was employed, as was a [nicotinamide-^3 H] NAD. Specifically, a 2 ml QAE-Sephadex column was first washed with 10 ml 1NHCl, followed by 10 ml H2 O, 20 ml 0.5M Tris-HCl pH 7.0, and 40 ml H2 O. [^3 H] NAD was applied, and the column washed with 20 ml water to elute impurities. Purified [^3 H] NAD was eluted with 0.25M NaCl, and stored in small aliquots at -70° C. The purified [^3 H] NAD contributed 50 mM NaCl (final concentration) to the NADase assays.
Before the end of the reaction, 2 ml QAE-Sephadex columns were treated with 10 ml 0.1M imidazole-HCl pH 7.0 with 1.0M NaCl, followed by 40 ml water. The NADase reaction (in 100 μl) was terminated by adding 0.85 ml of ice-cold water, and the entire 0.95 ml was pipetted into a treated QAE column. The labelled nicotinamide was then eluted with 3 ml of water directly into a scintillation vial and counted. The absorbed labelled NAD was then eluted into radioactive waste with 10 ml 0.1M imidazole-HCl pH 7.0 with 1.0M NaCl, and the column stored partially immersed in a water bath until the next assay.
In order to determine if any active toxin remained after the inactivation, a large excess of sulfhydryl reductant was added to each tube to scavenge unreacted sulfhydryl reagent. The NADase activity of the preparation was then measured. The three incubations were performed under a nitrogen atmosphere using degassed solutions to prevent oxidation of sulfhydryl groups which would prevent the sulfhydryl reagent from modifying the sulfhydryl group.
as §1
One-half microgram of pertussis toxin was incubated for thirty minutes at […] in 100 mM Tris-HCl (pH 8.0), with or without activators, in a volume of 50 μl. When present, ATP and pyrophosphate were present in a concentration of 2 mM, CHAPS at 2 weight percent, and DTT in a concentration of either 2 mM (trial 1) or 1 mM (trial 2). 10 μl of water with or without iodoacetate or N-ethylmaleimide was then added and a second incubation conducted at 30° C. for either thirty minutes (trial 1) or fifteen minutes (trial 2). After this incubation, 10 μl of 200 mM DTT was added to each tube, and the tubes were incubated for thirty (trial 1) or sixty minutes (trial 2) on ice to scavenge the iodoacetate or N-ethylmaleimide.

pertussis toxin [6] = molecular target: T1, pertussis toxin; assay: Inactivation of NADase activity by sulfhydryl reagents, 6 minutes or 18 hours at 0-4° (Example Eight); assay type: biochemical
Procedure: as §3, §4
The procedure followed in Example Seven was repeated for this study, except that N-ethylmaleimide, chloroacetamide or chloroacetate were substituted for iodoacetate. After the 30° C. incubation, the tubes were either incubated for six minutes or eighteen hours at 0°-4° C. before the 10 μl of 200 mM DTT (with or without quenched reagent) was added. Those tubes receiving the DTT after six minutes were incubated for nineteen hours at 0°-4° C. prior to the NADase assay. Those receiving the DTT after eighteen hours were incubated with DTT for one hour, as in Example Seven. The tubes were then assayed for NADase activity at the same time.

[7] = test system: S1 -S5 subunits of the toxin; assay: Labelled iodoacetate incorporation into toxin subunits, electrophoresis and x-ray film (Examples Two and Six); parameters: species or system Bordetella pertussis; conditions: CHAPS added, compared with DTT and ATP or DTT alone
S1 -S5 subunits of the toxin, sequence (P04977 35-269 limits assumed): as above
S1 -S5 subunits of the toxin, sequence (P04978 28-226 limits assumed, further chain): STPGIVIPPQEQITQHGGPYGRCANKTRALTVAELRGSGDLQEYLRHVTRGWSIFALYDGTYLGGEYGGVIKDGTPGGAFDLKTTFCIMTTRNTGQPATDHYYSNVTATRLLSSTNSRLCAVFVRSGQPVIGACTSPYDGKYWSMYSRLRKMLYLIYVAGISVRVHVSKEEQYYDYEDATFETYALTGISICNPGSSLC
S1 -S5 subunits of the toxin, sequence (P04979 29-227 limits assumed, further chain): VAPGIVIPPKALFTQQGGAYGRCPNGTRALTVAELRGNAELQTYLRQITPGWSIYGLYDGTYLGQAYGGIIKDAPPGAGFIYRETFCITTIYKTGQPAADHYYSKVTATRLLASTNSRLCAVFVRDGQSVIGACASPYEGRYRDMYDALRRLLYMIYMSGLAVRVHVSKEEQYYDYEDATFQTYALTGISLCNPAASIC
S1 -S5 subunits of the toxin, sequence (P0A3R5 43-152 limits assumed, further chain): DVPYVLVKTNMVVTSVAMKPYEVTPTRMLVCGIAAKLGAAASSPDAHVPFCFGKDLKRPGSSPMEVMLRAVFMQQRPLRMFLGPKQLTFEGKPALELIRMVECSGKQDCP
S1 -S5 subunits of the toxin, sequence (P04981 35-133 limits assumed, further chain): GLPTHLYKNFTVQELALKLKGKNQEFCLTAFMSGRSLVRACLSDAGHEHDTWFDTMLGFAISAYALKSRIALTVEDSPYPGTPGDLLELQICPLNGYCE
Procedure: Pertussis toxin (2.5 μg) was incubated for thirty minutes at 37° C. in 50 μl of 50 mM Tris-HCl (pH 8.0) with or without combinations of the activators ATP, CHAPS and DTT. During this incubation, ATP was 1 mM, CHAPS was 1 weight percent, and DTT was 0.5 mM, when present. Following this incubation, 75 nmol (1.34 microCi of iodo[^14 C]acetate and 25 μl of water were then added, and the tubes incubated for an additional thirty minutes under nitrogen gas at 30° C. in the dark. This labelling reaction was terminated by adding 1 ml of ice-cold water containing 7.5 mM non-radioactive iodoacetate, 2.5 μg bovine serum albumin, and 150 μg sodium deoxycholate. After ten minutes on ice, 100 μl 72% triochloroacetic acid was added, and the precipitate recovered by centrifugation. Sodium dodecylsulfate and beta-mercaptoethanol were added, the sample heated to 95° C. for one minute, and then electrophoresed using 15% polyacrylamide gels. The fixed gels were then treated, dried and used to expose x-ray film at -70° C.
as §2

[8] = first incubation: ATP, DTT, CHAPS, 6 minutes at 0-4°
[9] = first incubation: ATP, DTT, CHAPS, 18 hours at 0-4°

For NP-40, the “Fractional Activity with CHAPS” value (pertussis toxin [1]) was 0.97 and the “Fractional Activity without CHAPS” value (pertussis toxin [1]) was 0.54.

Triton X-100 was tested, and the “Fractional Activity with CHAPS” value (pertussis toxin [1]) was 1.05 and the “Fractional Activity without CHAPS” value (pertussis toxin [1]) was 0.58.

For O[C@H](CS)[C@H](O)CS (racemic) [DTT, dithiothreitol], the remaining activity at 1000 µM (pertussis toxin [2]; read-out: Percent NADase activity relative to iced control) was 38%, the “Effectiveness as sulfhydryl reductant to prepare the toxin for deactivation, in words” value (from here on “Effectiveness as sulfhydryl reductant”) (pertussis toxin [3]) was “effective” and the NADase activity (pertussis toxin [3]; 10 mM DTT with 1 mM ATP) was 147 U per microgram toxin and 195 U per microgram toxin. The EC50 (pertussis toxin [3]; read-out: concentration for half of the maximum effect (A0.5)) was 0.2 mM, the EC100 (pertussis toxin [3]; read-out: concentration showing full activation) was 1000 µM and the NADase activity (pertussis toxin [4]) was 18 U per microgram toxin and 36 U per microgram toxin.

In the case of N[C@@H](CS)C(=O)O [cysteine], the “Effectiveness as sulfhydryl reductant” value (pertussis toxin [3]) is reported as “effective” and the activation constant (pertussis toxin [3]; in the presence of ATP and CHAPS) is reported as “the same constant”.

For CCN1C(=O)C=CC1=O [N-ethylmaleimide], the “NADase activity (%) of the activity of toxin treated the same way without alkylating agent” value (pertussis toxin [5]; first incubation: DTT 1 mM, CHAPS 2%, ATP 2 mM, Experiment #2, second incubation 15 min at 30° C, 25 μM NAD) was 13%, the “NADase activity (%) of the activity of toxin treated the same way without alkylating agent” value (pertussis toxin [5]; first incubation: DTT 1 mM, CHAPS 2%, pyrophosphate 2 mM, Experiment #2, second incubation 15 min at 30° C, 25 μM NAD) was 46% and the “NADase activity (%) of the activity of toxin treated the same way without alkylating agent” value (pertussis toxin [5]; first incubation: DTT 2 mM, CHAPS 2%, ATP 2 mM, Experiment #1, second incubation 30 min at 30° C, 125 μM NAD) was 11%. The “NADase activity (%) of the activity of toxin treated the same way without alkylating agent” value (pertussis toxin [5]; first incubation: DTT 2 mM, CHAPS 2%, pyrophosphate 2 mM, Experiment #1, second incubation 30 min at 30° C, 125 μM NAD) was 60%, the “NADase activity (%) of the activity of toxin treated the same way without alkylating agent” value (pertussis toxin [5]; first incubation: none, Experiment #1, second incubation 30 min at 30° C, 125 μM NAD) was 90% and the “NADase activity (%) of the activity of toxin treated the same way without alkylating agent” value (pertussis toxin [5]; first incubation: none, Experiment #2, second incubation 15 min at 30° C, 25 μM NAD) was 106%. The NADase activity (pertussis toxin [6]; [8]) was 16 pmol per μg per hour, the “percent of activity with no addition to second incubation” value (pertussis toxin [6]; [8]) was 15% and the NADase activity (pertussis toxin [6]; [9]) was 10 pmol per μg per hour. For the same compound, the “percent of activity with no addition to second incubation” value (pertussis toxin [6]; [9]) was 10%.

For N[C@@H](CCC(=O)N[C@@H](CS)C(=O)NCC(=O)O)C(=O)O [glutathione], the “Effectiveness as sulfhydryl reductant” value (pertussis toxin [3]) was “effective” and the EC50 (pertussis toxin [3]; in the presence of ATP and CHAPS, read-out: activation constant) was 2 mM.

With C[C@H](CCC(=O)NCCC[N+](C)(C)CCCS(=O)(=O)[O-])[C@H]1CC[C@H]2[C@@H]3[C@H](O)C[C@@H]4C[C@H](O)CC[C@]4(C)[C@H]3C[C@H](O)[C@]12C [CHAPS, 3-[(3-cholamidopropyl)-dimethylammonio]-1-propane sulfonate] the “Percent NADase activity relative to iced control” value (pertussis toxin [2]) was 106, the NADase activity (pertussis toxin [6]; additions to first incubation only, second incubation none, 18 hours at 0-4°) was 186 pmol per μg per hour and the “NADase activity in the presence of CHAPS alone” value (pertussis toxin [1]; 1% CHAPS, two trials) was 153 units per microgram and 158 units per microgram. The “Peak indicating the alkylation of the S1 subunit” value [7] was “increases” and the “Peaks indicating alkylation of the S2 and S3 subunits” value [7] was “substantially decreases”.

Reference: patent US5032398A, “Selective modification of the catalytic subunit of pertussis toxin” (priority 1986, dated 1991)
